Assay results: patent US20090214435A1, “Recombinant vector expressing MDR1 shRNA and thymidine kinase and use thereof” (Kyungpook National University Industry-Academic Cooperation …, priority 2007, published 2009)

Tests used:
MTKG cells [1] = assay: Clonogenic assay, co-administration of ganciclovir and doxorubicin; format: cell-based, human; details: 10 days
Method: In order to confirm effects of co-administration of an anti-viral drug ganciclovir and an anticancer drug (doxorubicin) on cancer cells, clonogenic assay was carried out. For this purpose, first, MTKG cells were inoculated and cultured in a 100 mm plate containing RPMI 1640 medium, and the cells were then washed three times with a fresh medium. The cells were desorbed from the plate using trypsin-EDTA, and 1×10^3 cells were counted and inoculated into a 6-well plate with addition of ganciclovir (0.1 μCi) and doxorubicin at two different concentrations (10 and 25 nM), followed by incubation. 10 days after incubation, the culture medium was eliminated, and the cells were washed three times with a phosphate buffer and stained with a dye (Diff Quick staining kit). Colony formation was confirmed and colony count was made.

HCT/Mock cells [2] = assay: Clonogenic assay for anticancer drug sensitivity, control cells; format: cell-based, human; details: 10 days
Method: (§1) First, MTKG cells and HCT/Mock cells as a control group were inoculated at a cell density of 10^3 cells/well in a 6-well plate containing RPMI 1640 medium, followed by addition of an anticancer drug (doxorubicin or paclitaxel) at different concentrations (0, 1, 5, 10, 50, 100, 500, and 1000 nM) and incubation for 10 days. Thereafter, the culture medium was eliminated, and the cells were washed three times with a phosphate buffer and stained with a dye (Diff Quick staining kit). Colony formation was confirmed and colony count was made.

MTKG cells [3] = assay: Clonogenic assay for anticancer drug sensitivity, transfected cells; format: cell-based; details: Homo sapiens, 240 h, 10 days, read-out: inhibition of cell proliferation
Method: as §1

HCT-15 cells = assay: Cell proliferation assay (CellTiter 96 Aqueous One Solution) for ganciclovir sensitivity; format: cell-based, human; details: ganciclovir 0.1, 1, 10 μM, 4 days, FIG. 5B
Text: (§2) Whether increased intracellular accumulation capacity of ganciclovir confirmed in Section 5-1 leads to the enhanced drug sensitivity of MTKG cells to ganciclovir was examined by a cell proliferation assay using CellTiter 96 Aqueous One Solution cell proliferation assay kit (Promega, USA), First, MTKG cells and HCT/Mock cells as a control group were inoculated at a cell density of 10^2 cells/well in a 96-well plate containing RPMI 1640 medium, followed by addition of ganciclovir at different concentrations (0, 0.1, 1, and 10 μM) and incubation for 4 days. Thereafter, 20 μl of detection solution were added to each well. The cells were incubated for 90 min at 37° C. and then measured absorbance at 490 nm using miroplate reader (BioRad, USA). From the experimental results shown in FIG. 5B, it was confirmed that proliferation of HCT-15 and HCT/Mock cells as a control group was not affected by administration of ganciclovir, whereas proliferation of the MTKG cells was affected even at a ganciclovir concentration of 0.1 μM or higher, thus representing increased drug sensitivity of the cell.

MTKG cells [4] = assay: as above; format: cell-based, human; details: ganciclovir concentration of 0.1 μM or higher, 4 days, FIG. 5B
Text: as §2

HCT/Mock cells [5] = assay: as above; format: cell-based, human; details: ganciclovir 0.1, 1, 10 μM, 4 days, FIG. 5B
Text: as §2

MTKG cells [6] = assay: Intracellular accumulation of [H3]-ganciclovir; format: cell-based, human; details: 0.76 μCi/mL [H3]-ganciclovir, 45 min at 37° C., MTKG cells compared to HCT-15 and HCT/Mock cells, FIG. 5A
Method: A degree of intracellular ganciclovir accumulation by the TK-GFP gene was investigated as follows. MTKG cells constructed in Section 1-3 of Example 1, and HCT-15 and HCT/Mock cells as a control group were cultured in 6-well plates containing RPMI 1640 medium for 48 hours, to which 0.76 μCi/mL of an isotope-labeled ganciclovir ([H^3]-Ganciclovir, Moravek, USA) was then added, followed by incubation at 37° C. for 45 min. Then, the plate was washed three times with a phosphate buffer and a cell lysis buffer (50 mM Tris-HCl, 150 mM NaCl, and 1% SDS) was added thereto to lyse the cells. For each cell lysate sample, an isotope activity was measured using a beta-counter.

MTKG cells [7] = assay: Intracellular accumulation of [3H]-paclitaxel; format: cell-based, human; details: 50 nM [3H]-paclitaxel, 2 hours at 37° C., MTKG cells compared to HCT-15 and HCT/Mock cells, FIG. 4A
Method: A degree of intracellular drug accumulation by MDR1 shRNA was investigated. MTKG cells constructed in Section 1-3 of Example 1, and HCT-15 and HCT/Mock cells as a control group were cultured in 6-well plates containing RPMI 1640 medium for 48 hours, to which 50 nM of an isotope-labeled anticancer drug ([^3H]-paclitaxel, Moravek, USA) was then added, followed by incubation at 37° C. for 2 hours. Then, the plate was washed three times with a phosphate buffer, and a cell lysis buffer (50 mM Tris-HCl, 150 mM NaCl, and 1% SDS) was added thereto to lyse the cells. For each cell lysate sample, an isotope activity was measured using a beta-counter.

P-glycoprotein = assay: Western blot analysis of P-glycoprotein expression in transfected cells; format: cell-based, human; details: MTKG cells vs control cell line, FIG. 2B
Method: In order to investigate whether intracellular incorporation of MDR1 shRNA inhibits expression of P-glycoprotein which is an expression product of the MDR1 gene, Western blot analysis was carried out for proteins isolated from HCT-15, HCT/Mock, and MTKG cells, respectively. The procedure will be briefly described as follows. HCT-15, HCT/Mock, and MTKG cells were lysed in a cell lysis buffer (containing 50 mM Tris-HCl, 150 mM NaCl, 1% Triton X-100, 1 mM CaCl2, 1 mM MgC2 and protease inhibitor cocktail (Roche, USA), pH 7.4). 30 μg of each protein in the cell lysates was subjected to electrophoresis on polyacrylamide gel containing 7% SDS, and the developed protein gel was transferred to a nitrocellulose membrane. Thereafter, anti-P-glycoprotein antibodies (clone C219, Calbiochem, USA) were diluted in a TBS-T solution (50 mM Tris-HCl, pH 7.6, 150 mM NaCl, 0.1% Tween 20) and were allowed to react and bind with a nitrocellulose membrane for more than 16 hours under refrigeration conditions. After the reaction was complete, the membrane was washed three times with a TBS-T solution, followed by binding reaction with horseradish peroxidase (HRP)-conjugated anti-mouse IgG antibodies (Santa Cruz, USA) for 1 hour at room temperature. […]

MDR1 mRNA = assay: RT-PCR analysis of MDR1 mRNA expression in transfected cells; format: cell-based, human; details: MTKG cells vs HCT-15 and HCT/Mock, FIG. 2A
Method: Expression of MDR1 shRNA in MTKG cells of Section 1-3 of Example 1 was examined by RT-PCR For this purpose, total RNA was isolated from HCT-15, HCT/Mock, and MTKG cells, using Trizol reagent (Invitrogen) according to the manufacturer's instructions. Then, cDNA was prepared using 2 μg of the isolated total RNA as a template, and Oligo(dT)15 primer (Bionics, Seoul, Korea) and reverse transcriptase (Promega). PCR amplification for MDR1 mRNA was carried out using the prepared cDNA as a template and a pair of primers (SEQ ID NOS: 12 and 13). PCR was carried out as follows: initial denaturation of template cDNA at 94° C. for 2 min, followed by 30 cycles of denaturation at 94° C. for 30 seconds, annealing at 60° C. for 30 seconds and extension at 72° C. for 1 min.

Question: What does the source list for `COc1cccc2c1C(=O)c1c(O)c3c(c(O)c1C2=O)C[C@@](O)(C(=O)CO)C[C@@H]3O[C@H]1C[C@H](N)[C@H](O)[C@H](C)O1` [doxorubicin]?
Answer: cell survival rate (MTKG cells [1]; 10 nM doxorubicin alone): 78.8±7.8%; cell survival rate (MTKG cells [1]; 25 nM doxorubicin alone): 37.7±3.3%; inhibition of cell proliferation (HCT/Mock cells [2]; doxorubicin concentration of 500 nM or higher, FIG. 4B): ≥ 90%; inhibition at 0.05 µM (MTKG cells [3]; doxorubicin concentration of 50 nM, FIG. 4B): ≥ 90%

Question: Which results are given for `Nc1nc(O)c2ncn(COC(CO)CO)c2n1` [ganciclovir]?
Answer: proliferation of cells on administration of ganciclovir (HCT-15 cells): not affected; proliferation of cells on administration of ganciclovir (MTKG cells [4]): affected; proliferation of cells on administration of ganciclovir (HCT/Mock cells [5]): not affected; accumulation of ganciclovir (MTKG cells [6]): higher accumulation; cell survival rate (MTKG cells [1]; 0.1 μCi ganciclovir alone): 61.1±4.1%

Question: With `CC(=O)O[C@H]1C(=O)[C@@]2(C)[C@H]([C@H](OC(=O)c3ccccc3)[C@]3(O)C[C@H](OC(=O)[C@H](O)[C@@H](NC(=O)c4ccccc4)c4ccccc4)C(C)=C1C3(C)C)[C@]1(OC(C)=O)CO[C@@H]1C[C@@H]2O` [paclitaxel] as the molecule, how does the accumulation of paclitaxel (MTKG cells [7]) read?
Answer: higher accumulation

Question: What about the inhibition at 0.1 µM (HCT/Mock cells [2]; Homo sapiens, 240 h, paclitaxel concentration of 100 nM, FIG. 4C, read-out: inhibition of cell proliferation) of the same molecule?
Answer: ≥ 70%

Question: What about the inhibition at 0.01 µM (MTKG cells [3]; paclitaxel concentration of 10 nM, FIG. 4C) of the same molecule?
Answer: ≥ 70%

B1: MDR1 shRNA: shRNA with sense and antisense sequences for target SEQ ID NO: 6 (5′-GGCCUAAUGCCGAACACAU-3′), CGAA loop, expressed from U6 promoter (nucleic acid)
sense: GATCCCGGCCTAATGCCGAACACATCGAAATGTGTTCGGCATTAGGCCTTTTTTCCAAC
antisense: TCGAGTTGGAAAAAAGGCCTAATGCCGAACACATTTCGATGTGTTCGGCATTAGGCCGG
modifications: the letters are possibly those of the target site
Question: Which P-glycoprotein expression (P-glycoprotein) does the source give for B1 here?
Answer: inhibition of P-glycoprotein expression

Question: What about the “level of MDR1 mRNA” value (MDR1 mRNA) of the same molecule?
Answer: decreased level of MDR1 mRNA
